{"source": "patent US9315475B2", "about": "(MERCK SHARP & DOHME CORP., priority 2011, dated 2016)", "note": "pEC50: −log10 of the molar value."}
{"tested_on": "HIV-1 (H9IIIB strain)", "assay": "Antiviral acute infection assay in cell culture (Spread)", "format": "cell-based", "settings": "Human immunodeficiency virus 1, T-lymphoid, HIV-1 H9IIIB infection of MT-4 human T-lymphoid cells in 10% FBS; mean of at least two independent experiments", "excerpt": "Antiviral Assays in Cell Culture (“Spread”)\nAcute Infection Assay (“Spread”) data were generated using HIV-1 (H9IIIB strain) infection of MT-4 human T-lymphoid cells in 10% FBS, and according to the methods disclosed by J. P. Vacca et al, “L-735,524: An orally bioavailable human immunodeficiency virus type 1 protease inhibitor,” Proc. Natl. Acad. Sci. USA, Vol. 91, pp. 4096-4100 (April 1994)."}
{"smiles": "N[C@H](C(=O)Nc1cccc(F)c1CC[C@@H]1CN[C@H](COC(=O)NC2CCOCC2)CO1)C(c1ccc(F)cc1)c1ccc(F)cc1", "note": "[Example 223, 4-fluoro-β-(4-fluorophenyl)-N-(3-fluoro-2-{2-[(2R,5S)-5-{[(tetrahydro-2H-pyran-4-ylcarbamoyl)oxy]methyl}morpholin-2-yl]ethyl}phenyl)-L-phenylalaninamide]", "pEC50": 5.85}
{"smiles": "O=C(C[C@H](c1ccc(F)cc1)c1ccc(Cl)c(F)c1)Nc1cncc(F)c1CC[C@@H]1CN[C@H](COC(=O)NCC(F)(F)F)CO1", "note": "[Example 182, {(3S,6R)-6-[2-(3-{[(3R)-3-(4-chloro-3-fluorophenyl)-3-(4-fluoro-phenyl)propanoyl]amino}-5-fluoropyridin-4-yl)ethyl]morpholin-3-yl}methyl (2,2,2-trifluoroethyl)carbamate]", "pEC50": 7.77}
{"smiles": "O=C(C[C@@H](c1ccc(F)cc1)c1ccccc1F)Nc1cncc(F)c1CC[C@@H]1CN[C@H](COC(=O)NCC(F)(F)F)CO1", "note": "[Example 158, {(3S,6R)-6-[2-(3-fluoro-5-{[(3S)-3-(2-fluorophenyl)-3-(4-fluorophenyl)propanoyl]amino}pyridin-4-yl)ethyl]morpholin-3-yl]methyl (2,2,2-trifluoroethyl)carbamate]", "pEC50": 7.47}
{"smiles": "O=C(C[C@@H](c1ccc(F)cc1)c1ccsc1)Nc1cccc(F)c1CC[C@@H]1CN[C@H](COC(=O)NCC(F)(F)F)CO1", "note": "[Example 183, {(3S,6R)-6-[2-(2-fluoro-6-{[(3S)-3-(4-fluorophenyl)-3-thiophen-3-ylpropanoyl]amino}phenyl)ethyl]morpholin-3-yl}methyl (2,2,2-trifluoroethyl)carbamate]", "pEC50": 6.16}
{"smiles": "COC(=O)N[C@H](C(=O)Nc1cccc(F)c1CC[C@@H]1CN[C@H](COC(=O)NCC(F)(F)F)CO1)[C@@H](c1ccc(Cl)cc1)c1cncc(F)c1", "note": "[Example 137, (βS)-4-Chloro-β-(5-fluoropyridin-3-yl)-N-(3-fluoro-2-{2-[(2R,5S)-5-({[(2,2,2-trifluoroethyl)carbamoyl]oxy}methyl)morpholin-2-yl]ethyl}phenyl)-Nα-(methoxycarbonyl)-L-phenylalaninamide]", "pEC50": 8.01}
{"smiles": "O=C(CC(c1ccc(F)cc1)c1ccc(F)cc1)Nc1cncc(F)c1CC[C@@H]1CN[C@H](COC(=O)NCc2ccno2)CO1", "note": "[Example 188, {(3S,6R)-6-[2-(3-{[3,3-bis(4-fluoro-phenyl)propanoyl]amino}-5-fluoropyridin-4-yl)ethyl]morpholin-3-yl}methyl (isoxazol-5-ylmethyl)carbamate]", "pEC50": 7.30}
{"smiles": "N[C@H](C(=O)Nc1cncc(F)c1CC[C@@H]1CN[C@H](COC(=O)NCC(F)(F)F)CO1)[C@@H](c1ccc(Cl)cc1)c1cccc(OC(F)(F)F)c1", "note": "[Example 98, (βS)-β-(4-Chlorophenyl)-N-(5-fluoro-4-{2-[(2R,5S)-5-({[(2,2,2-trifluoroethyl)carbamoyl]oxy}methyl)morpholin-2-yl]ethyl}pyridin-3-yl)-3-(trifluoromethoxy)-L-phenylalaninamide]", "pEC50": 7.55}
{"smiles": "N[C@H](C(=O)Nc1cccc(F)c1CC[C@@H]1CN[C@H](COC(=O)NCCOc2ccccc2)CO1)C(c1ccc(F)cc1)c1ccc(F)cc1", "note": "[Example 222, 4-fluoro-N-(3-fluoro-2-{2-[(2R,5S)-5-({[(2-phenoxyethyl)carbamoyl]oxy}methyl)morpholin-2-yl]ethyl}phenyl)-β-(4-fluorophenyl)-L-phenylalaninamide]", "pEC50": 7.28}
{"smiles": "O=C(CC(c1ccc(F)cc1)c1ccc(F)cc1)Nc1cncc(F)c1CC[C@@H]1CN[C@H](COC(=O)NCc2ccc(F)cc2)CO1", "note": "[Example 176, {(3S,6R)-6-[2-(3-{[3,3-bis(4-fluoro-phenyl)propanoyl]amino}-5-fluoropyridin-4-yl)ethyl]morpholin-3-yl}methyl (4-fluorobenzyl)carbamate]", "pEC50": 7.14}
{"smiles": "COC(=O)N[C@H](C(=O)Nc1cncc(F)c1CC[C@@H]1CN[C@H](COC(=O)NCC(F)(F)F)CO1)[C@@H](c1ccc(Cl)cc1)c1cccc(OC(F)(F)F)c1", "note": "[Example 106, (βS)-β-(4-Chlorophenyl)-N-(5-fluoro-4-{2-[(2R,5S)-5-({[(2,2,2-trifluoroethyl)carbamoyl]oxy}methyl)morpholin-2-yl]ethyl}pyridin-3-yl)-Nα-(methoxycarbonyl)-3-(trifluoromethoxy)-L-phenylalaninamide]", "pEC50": 8.19}
{"smiles": "N#Cc1ccc([C@@H](CC(=O)Nc2cncc(F)c2CC[C@@H]2CN[C@H](COC(=O)NCC(F)(F)F)CO2)c2ccc(F)c(F)c2)cc1", "note": "[Example 115, {(3S,6R)-6-[2-(3-{[(3R)-3-(4-Cyanophenyl)-3-(3,4-difluorophenyl)propanoyl]amino}-5-fluoropyridin-4-yl)ethyl]morpholin-3-yl}methyl (2,2,2-trifluoroethyl)carbamate]", "pEC50": 7.52}
{"smiles": "COC(=O)N[C@H](C(=O)Nc1cccc(F)c1CC[C@@H]1CN[C@H](COC(=O)NCC(F)(F)F)CO1)[C@H](c1ccccc1)c1ccc(OC)c(Cl)c1", "note": "[Example 109, (βR)-3-Chloro-N-(3-fluoro-2-{2-[(2R,5S)-5-({[(2,2,2-trifluoroethyl)carbamoyl]oxy}methyl)morpholin-2-yl]ethyl}phenyl)-Nα-(methoxycarbonyl)-O-methyl-β-phenyl-L-tyrosinamide]", "pEC50": 6.47}
{"smiles": "N[C@H](C(=O)Nc1cccc(F)c1CC[C@@H]1CN[C@H](COC(=O)N[C@H]2CCCOC2)CO1)C(c1ccc(F)cc1)c1ccc(F)cc1", "note": "[Example 122, 4-Fluoro-β-(4-fluorophenyl)-N-(3-fluoro-2-{2-[(2R,5S)-5-({[(3S)-tetrahydro-2H-pyran-3-ylcarbamoyl]oxy}methyl)morpholin-2-yl]ethyl}phenyl)-L-phenylalaninamide]", "pEC50": 7.36}
{"smiles": "N#Cc1cccc([C@@H](CC(=O)Nc2cccc(F)c2CC[C@@H]2CN[C@H](COC(=O)NCC(F)(F)F)CO2)c2ccc(F)cc2)c1", "note": "[Example 160, {(3S,6R)-6-[2-(2-{[(3S)-3-(3-cyanophenyl)-3-(4-fluorophenyl)propanoyl]amino}-6-fluoro-phenyl)ethyl]morpholin-3-yl}methyl (2,2,2-trifluoroethyl)carbamate]", "pEC50": 7.51}
{"smiles": "O=C(CC(c1ccc(F)cc1)c1ccc(F)cc1)Nc1cncc(F)c1CC[C@@H]1CN[C@H](COC(=O)NCCOc2ccccc2)CO1", "note": "[Example 170, {(3S,6R)-6-[2-(3-{[3,3-bis(4-fluoro-phenyl)propanoyl]amino}-5-fluoropyridin-4-yl)ethyl]morpholin-3-yl}methyl (2-phenoxyethyl)carbamate]", "pEC50": 7.21}
{"smiles": "COC(=O)N[C@H](C(=O)Nc1cncc(F)c1CC[C@@H]1CN[C@H](COC(=O)NCC(F)(F)F)CO1)[C@@H](c1ccc(F)cc1)c1cccc(Cl)c1", "note": "[Example 301, (βS)-3-chloro-β-(4-fluorophenyl)-N-(5-fluoro-4-{2-[(2R, 5S)-5-({[(2,2,2-trifluoroethyl)carbamoyl]oxy}methyl)morpholin-2-yl]ethyl}pyridin-3-yl)-Nα-(methoxycarbonyl)-L-phenylalaninamide]", "pEC50": 7.60}
{"smiles": "CNC(=O)OC[C@@H]1CO[C@H](CCc2c(F)cncc2NC(=O)CC(c2ccc(F)cc2)c2ccc(F)cc2)CN1", "note": "[Example 177, {(3S,6R)-6-[2-(3-{[3,3-bis(4-fluoro-phenyl)propanoyl]amino}-5-fluoropyridin-4-yl)ethyl]morpholin-3-yl}methyl methylcarbamate]", "pEC50": 7.39}
{"smiles": "N#Cc1ccc([C@H](c2ccc(F)c(F)c2)[C@H](N)C(=O)Nc2cccc(F)c2CC[C@@H]2CN[C@H](COC(=O)NCC(F)(F)F)CO2)cc1", "note": "[Example 102, (βR)-β-(4-Cyanophenyl)-3,4-difluoro-N-(3-fluoro-2-{2-[(2R,5S)-5-({[(2,2,2-trifluoroethyl)carbamoyl]oxy}methyl)morpholin-2-yl]ethyl}phenyl)-L-phenylalaninamide]", "pEC50": 7.43}
{"smiles": "NC(=O)OC[C@@H]1CO[C@H](CCc2c(F)cccc2NC(=O)CC(c2ccccc2)c2ccccc2)CN1", "note": "[Example 152, [(3S,6R)-6-(2-{2-[(3,3-diphenylpropanoyl)amino]-6-fluorophenyl}ethyl)morpholin-3-yl] methyl carbamate]", "pEC50": 7.06}
{"smiles": "O=C(CC(c1ccc(F)cc1)c1ccc(F)cc1)Nc1cncc(F)c1CC[C@@H]1CN[C@H](COC(=O)NCC2CCCO2)CO1", "note": "(stereo partly drawn) [Example 169, {(3S,6R)-6-[2-(3-{[3,3-bis(4-fluoro-phenyl)propanoyl]amino}-5-fluoropyridin-4-yl)ethyl]morpholin-3-yl}methyl (tetrahydrofuran-2-ylmethyl)carbamate]", "pEC50": 7.14}
{"smiles": "COC(=O)N[C@H](C(=O)Nc1cccc(F)c1CC[C@@H]1CN[C@H](COC(=O)NCC(F)(F)F)CO1)[C@@H](c1ccc(Cl)cc1)c1ccncc1F", "note": "[Example 134, (βS)-4-Chloro-β-(3-fluoropyridin-4-yl)-N-(3-fluoro-2-{2-[(2R,5S)-5-({[(2,2,2-trifluoroethyl)carbamoyl]oxy}methyl)morpholin-2-yl]ethyl}phenyl)-Nα-(methoxycarbonyl)-L-phenylalaninamide]", "pEC50": 7.55}
{"smiles": "NC(=O)[C@H]1CCCCC1NC(=O)OC[C@@H]1CO[C@H](CCc2c(F)cncc2NC(=O)CC(c2ccc(F)cc2)c2ccc(F)cc2)CN1", "note": "(stereo partly drawn) [Example 187, {(3S,6R)-6-[2-(3-{[3,3-bis(4-fluoro-phenyl)propanoyl]amino}-5-fluoropyridin-4-yl)ethyl]morpholin-3-yl}methyl [(2S)-2-carbamoylcyclohexyl] carbamate]", "pEC50": 6.68}
{"smiles": "O=C(C[C@@H](c1ccc(F)cc1)c1ccncc1F)Nc1cccc(F)c1CC[C@@H]1CN[C@H](COC(=O)NCC(F)(F)F)CO1", "note": "[Example 138, {(3S,6R)-6-[2-(2-Fluoro-6-{[(3S)-3-(4-fluorophenyl)-3-(3-fluoropyridin-4-yl)propanoyl]amino}phenyl)ethyl]morpholin-3-yl}methyl (2,2,2-trifluoroethyl)carbamate]", "pEC50": 7.51}
